ChEMBL document CHEMBL1201862, “PubChem BioAssay data set” (2004)
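Cultured in 96-well plates, cells were exposed to test compound for 48 hours across five concentrations. At the GI50, growth is halved.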 The source made the active and inactive calls. Cut-off read from the data, not from the text of the source: active = GI50 up to about 1.1 µM and inactive = higher.

Key:
Test in all cases: inhibition of tumour cell growth, NCI panel, 48 h
[1] = system: A498
[2] = system: CAKI-1
[3] = system: DU-145
[4] = system: EKVX
[5] = system: HOP-62
[6] = system: IGROV-1
[7] = system: LOX IMVI
[8] = system: M14
[9] = system: MDA-MB-435
[10] = system: NCI-H23
[11] = system: NCI-H522
[12] = system: OVCAR-5
[13] = system: OVCAR-8
[14] = system: SF-268
[15] = system: SK-MEL-2
[16] = system: SK-OV-3
[17] = system: SNB-75
[18] = system: U-251
[19] = system: RPMI-8226
[20] = system: T47D

## O=C1C(/C=C/c2ccc(Cl)cc2)=NNC2N1N=C1NC(=O)C3(NN12)c1ccccc1-c1ccccc13 (stereo not given)
[1]
  GI50: > 100 µM (inactive)
[2]
  GI50: > 100 µM (inactive)
[3]
  GI50: > 100 µM (inactive)
[4]
  GI50: 38.5 µM (inactive)
[5]
  GI50: > 100 µM (inactive)
[6]
  GI50: > 100 µM (inactive)
[7]
  GI50: > 100 µM (inactive)
[8]
  GI50: > 100 µM (inactive)
[9]
  GI50: 60.8 µM (inactive)
[10]
  GI50: > 100 µM (inactive)
[11]
  GI50: > 100 µM (inactive)
[12]
  GI50: > 100 µM (inactive)
[13]
  GI50: > 100 µM (inactive)
[14]
  GI50: > 100 µM (inactive)
[15]
  GI50: > 100 µM (inactive)
[16]
  GI50: > 100 µM (inactive)
[17]
  GI50: > 100 µM (inactive)
[18]
  GI50: > 100 µM (inactive)

## C=CCOC(=O)CC[C@H](NC(=O)[C@@H](CCC(F)(F)F)Cc1ccc(O)cc1)C(=O)OCC=C
[2]
  GI50: > 100 µM (inactive)
[4]
  GI50: 27.3 µM (inactive)
[5]
  GI50: > 100 µM (inactive)
[6]
  GI50: > 100 µM (inactive)
[7]
  GI50: 55.2 µM (inactive)
[8]
  GI50: 21.3 µM (inactive)
[9]
  GI50: 25.4 µM (inactive)
[10]
  GI50: 38.5 µM (inactive)
[11]
  GI50: 24.3 µM (inactive)
[12]
  GI50: > 100 µM (inactive)
[13]
  GI50: > 100 µM (inactive)
[19]
  GI50: 30.4 µM (inactive)
[14]
  GI50: 41 µM (inactive)
[16]
  GI50: > 100 µM (inactive)
[17]
  GI50: 28.8 µM (inactive)
[20]
  GI50: 20.6 µM (inactive)

## O=C(COc1ccc(OCC(=O)N2C(=O)CC(=O)N(c3ccccc3)C2=S)cc1)N1C(=O)CC(=O)N(c2ccccc2)C1=S
[1]
  GI50: 80.2 µM (inactive)
[2]
  GI50: 0.851 µM (active)
[3]
  GI50: 55.7 µM (inactive)
[4]
  GI50: > 100 µM (inactive)
[6]
  GI50: 38.7 µM (inactive)
[8]
  GI50: 89.5 µM (inactive)
[9]
  GI50: 76 µM (inactive)
[10]
  GI50: 64.4 µM (inactive)
[11]
  GI50: 38.1 µM (inactive)
[12]
  GI50: > 100 µM (inactive)
[19]
  GI50: 31.1 µM (inactive)
[14]
  GI50: 43.2 µM (inactive)
[15]
  GI50: 43.4 µM (inactive)
[16]
  GI50: 77.4 µM (inactive)
[17]
  GI50: > 100 µM (inactive)
[18]
  GI50: 46.1 µM (inactive)

## O=C(CN1CCOCC1)c1ccc2c(c1)oc(=O)n2CCN1CCOCC1
[1]
  GI50: > 100 µM (inactive)
[2]
  GI50: > 100 µM (inactive)
[3]
  GI50: > 100 µM (inactive)
[4]
  GI50: > 100 µM (inactive)
[5]
  GI50: > 100 µM (inactive)
[6]
  GI50: > 100 µM (inactive)
[7]
  GI50: > 100 µM (inactive)
[8]
  GI50: > 100 µM (inactive)
[9]
  GI50: > 100 µM (inactive)
[12]
  GI50: > 100 µM (inactive)
[13]
  GI50: > 100 µM (inactive)
[19]
  GI50: > 100 µM (inactive)
[14]
  GI50: > 100 µM (inactive)
[15]
  GI50: > 100 µM (inactive)
[16]
  GI50: > 100 µM (inactive)
[17]
  GI50: > 100 µM (inactive)
[18]
  GI50: > 100 µM (inactive)

## C=CCc1cccc2cc(C(=O)Nc3nc(C45CC6CC(CC(C6)C4)C5)cs3)c(=O)oc12
[1]
  GI50: 25.2 µM (inactive)
[2]
  GI50: 20.6 µM (inactive)
[3]
  GI50: 44.6 µM (inactive)
[4]
  GI50: 25.1 µM (inactive)
[5]
  GI50: 17.8 µM (inactive)
[6]
  GI50: 27.8 µM (inactive)
[7]
  GI50: 19.4 µM (inactive)
[9]
  GI50: 51.5 µM (inactive)
[10]
  GI50: 18 µM (inactive)
[11]
  GI50: 49.7 µM (inactive)
[12]
  GI50: > 100 µM (inactive)
[13]
  GI50: 85.9 µM (inactive)
[19]
  GI50: 26.9 µM (inactive)
[14]
  GI50: 10.7 µM (inactive)
[17]
  GI50: 24.2 µM (inactive)
[18]
  GI50: 20.2 µM (inactive)

## Cc1cc(=O)oc2c3c(ccc12)OC(c1ccc(Br)cc1)CC3=O (stereo not given)
[2]
  GI50: 12.4 µM (inactive)
[4]
  GI50: 15.1 µM (inactive)
[5]
  GI50: 7.69 µM (inactive)
[6]
  GI50: 10.7 µM (inactive)
[7]
  GI50: 2.98 µM (inactive)
[8]
  GI50: 10.4 µM (inactive)
[9]
  GI50: 4.69 µM (inactive)
[10]
  GI50: 12.1 µM (inactive)
[11]
  GI50: 4.42 µM (inactive)
[12]
  GI50: 16.3 µM (inactive)
[13]
  GI50: 5.86 µM (inactive)
[19]
  GI50: 4.04 µM (inactive)
[14]
  GI50: 10.2 µM (inactive)
[15]
  GI50: 11.3 µM (inactive)
[16]
  GI50: 8.15 µM (inactive)
[17]
  GI50: 3.02 µM (inactive)
[20]
  GI50: 0.177 µM (active)
[18]
  GI50: 5.9 µM (inactive)

## N#Cc1nc(-c2cnccn2)oc1N
[1]
  GI50: > 100 µM (inactive)
[2]
  GI50: > 100 µM (inactive)
[3]
  GI50: > 100 µM (inactive)
[4]
  GI50: > 100 µM (inactive)
[5]
  GI50: > 100 µM (inactive)
[6]
  GI50: > 100 µM (inactive)
[7]
  GI50: > 100 µM (inactive)
[8]
  GI50: > 100 µM (inactive)
[9]
  GI50: > 100 µM (inactive)
[12]
  GI50: > 100 µM (inactive)
[13]
  GI50: > 100 µM (inactive)
[19]
  GI50: 49.7 µM (inactive)
[14]
  GI50: > 100 µM (inactive)
[15]
  GI50: > 100 µM (inactive)
[16]
  GI50: > 100 µM (inactive)
[17]
  GI50: > 100 µM (inactive)
[18]
  GI50: > 100 µM (inactive)

## C=C(CN(CC(=C)C(=O)c1ccccc1)C(C)(C)C)C(=O)c1ccccc1
[1]
  GI50: 18.3 µM (inactive)
[2]
  GI50: 4.28 µM (inactive)
[3]
  GI50: 19.6 µM (inactive)
[4]
  GI50: 18.9 µM (inactive)
[6]
  GI50: 20.5 µM (inactive)
[7]
  GI50: 16.4 µM (inactive)
[8]
  GI50: 10.5 µM (inactive)
[10]
  GI50: 16.4 µM (inactive)
[11]
  GI50: 2.86 µM (inactive)
[12]
  GI50: 19.6 µM (inactive)
[13]
  GI50: 20.5 µM (inactive)
[19]
  GI50: 4.38 µM (inactive)
[14]
  GI50: 12.2 µM (inactive)
[15]
  GI50: 18.2 µM (inactive)
[16]
  GI50: 18.4 µM (inactive)
[17]
  GI50: 12.8 µM (inactive)
[18]
  GI50: 20.5 µM (inactive)

## COCCN(C(=O)c1ccccc1)C1CCC2(SCCS2)c2[nH]c3ccccc3c21 (stereo not given)
[1]
  GI50: 45.7 µM (inactive)
[2]
  GI50: 79.6 µM (inactive)
[3]
  GI50: > 100 µM (inactive)
[4]
  GI50: 30.3 µM (inactive)
[5]
  GI50: > 100 µM (inactive)
[6]
  GI50: 34.5 µM (inactive)
[7]
  GI50: 57.7 µM (inactive)
[9]
  GI50: 20.4 µM (inactive)
[10]
  GI50: 51.5 µM (inactive)
[11]
  GI50: 23.3 µM (inactive)
[12]
  GI50: > 100 µM (inactive)
[13]
  GI50: 25.6 µM (inactive)
[19]
  GI50: 20.2 µM (inactive)
[14]
  GI50: > 100 µM (inactive)
[17]
  GI50: 70.1 µM (inactive)
[18]
  GI50: 46.9 µM (inactive)

## COc1ccc(-c2nc3ncccn3c2-c2ccc(SC)cc2)cc1
[2]
  GI50: 0.74 µM (active)
[5]
  GI50: 5.64 µM (inactive)
[6]
  GI50: 2.04 µM (inactive)
[7]
  GI50: 2.14 µM (inactive)
[8]
  GI50: 1.48 µM (inactive)
[9]
  GI50: 0.213 µM (active)
[10]
  GI50: 3.3 µM (inactive)
[11]
  GI50: 0.23 µM (active)
[12]
  GI50: 2.42 µM (inactive)
[13]
  GI50: 3.92 µM (inactive)
[19]
  GI50: 2.48 µM (inactive)
[14]
  GI50: 0.418 µM (active)
[15]
  GI50: 1.32 µM (inactive)
[16]
  GI50: 0.439 µM (active)
[17]
  GI50: 5.96 µM (inactive)
[18]
  GI50: 2.44 µM (inactive)

## CC(C)C1OC(=O)/C=C/C=C/C=C/C=C/C=C/CC(O)CC(O)CC(O)CC(O)CC(O)CC(O)CC(O)CC(O)/C=C/C1C (stereo not given)
[1]
  GI50: > 100 µM (inactive)
[2]
  GI50: > 100 µM (inactive)
[3]
  GI50: > 100 µM (inactive)
[4]
  GI50: > 100 µM (inactive)
[5]
  GI50: > 100 µM (inactive)
[6]
  GI50: > 100 µM (inactive)
[7]
  GI50: > 100 µM (inactive)
[8]
  GI50: > 100 µM (inactive)
[9]
  GI50: > 100 µM (inactive)
[10]
  GI50: > 100 µM (inactive)
[12]
  GI50: > 100 µM (inactive)
[13]
  GI50: > 100 µM (inactive)
[19]
  GI50: > 100 µM (inactive)
[14]
  GI50: > 100 µM (inactive)
[15]
  GI50: > 100 µM (inactive)
[17]
  GI50: > 100 µM (inactive)
[18]
  GI50: > 100 µM (inactive)

## NNC(=O)c1c(-c2cccnc2)cnc2ccccc12
[2]
  GI50: > 100 µM (inactive)
[3]
  GI50: > 100 µM (inactive)
[4]
  GI50: > 100 µM (inactive)
[5]
  GI50: > 100 µM (inactive)
[6]
  GI50: > 100 µM (inactive)
[8]
  GI50: > 100 µM (inactive)
[10]
  GI50: > 100 µM (inactive)
[11]
  GI50: > 100 µM (inactive)
[12]
  GI50: > 100 µM (inactive)
[13]
  GI50: > 100 µM (inactive)
[19]
  GI50: > 100 µM (inactive)
[14]
  GI50: > 100 µM (inactive)
[15]
  GI50: > 100 µM (inactive)
[16]
  GI50: 4.02 µM (inactive)
[17]
  GI50: 45.6 µM (inactive)
[18]
  GI50: > 100 µM (inactive)
